Results reported in article PMC6112376, “Comprehensive Analyses and Prioritization of Tox21 10K Chemicals Affecting Mitochondrial Function by in-Depth Mechanistic Studies” (Environmental Health Perspectives, 2018).
Structures can show the parent of a compound that is named as a salt. Where two headings read alike, the source gives them in different places.

How the values were obtained:
[1] = system: rat primary hepatocytes; experiment: MMP assay in rat primary hepatocytes; details: for IC50: Rattus norvegicus, Hepatocyte, read-out: MMP assays IC50 (µM) Rat Hepatocytes; for MMP assays efficacy (%) Rat Hepatocytes / MMP assays IC50 (µM) Rat Hepatocytes: mean ± SD of three experiments
[2] = system: HepG2 cells; details: cited from earlier work
[3] = system: HepG2 cells; experiment: cells; details: Homo sapiens; for IC50: HepG2, read-out: MMP assays IC50 (µM) HepG2; for Emax: HepG2, read-out: MMP assays efficacy (%) HepG2
[4] = read-out: MMP assays IC50 (µM) qHTS-HepG2
[5] = read-out: MMP assays IC50 (µM), qHTS-HepG2

O=c1c2ccccc2[se]n1-c1ccccc1 [Ebselen]
IC50 [1]: 21.4 ± 5.35 µM
MMP assays efficacy (%) Rat Hepatocytes [1]: -58±5%
MMP assays efficacy (%) qHTS-HepG2 [2]: -94±8%
IC50 [2, 4]: 23.2 ± 0.93 µM
IC50 [3]: 19.4 µM
Emax [3]: 112%

O=C1OC[C@H](Cc2cccc(O)c2)[C@H]1Cc1cccc(O)c1 [Enterolactone]
MMP assays IC50 (µM) Rat Hepatocytes [1]: inactive
MMP assays efficacy (%) Rat Hepatocytes [1]: inactive
MMP assays efficacy (%) qHTS-HepG2 [2]: -79±21%
IC50 [2, 4]: 9.99 ± 5.02 µM
IC50 [3]: 10.7 µM
Emax [3]: 76%

CC(=O)Oc1ccc2c(c1)CC[C@@H]1[C@@H]2CC[C@]2(C)[C@@H](O)CC[C@@H]12 [Estradiol acetate]
MMP assays IC50 (µM) Rat Hepatocytes [1]: inactive
MMP assays efficacy (%) Rat Hepatocytes [1]: inactive
MMP assays efficacy (%) qHTS-HepG2 [2]: -85±4%
IC50 [2, 4]: 9.08 ± 0.59 µM
IC50 [3]: 17.3 µM
Emax [3]: 95%

CCOc1ccc(/N=N/c2ccc(N)cc2N)cc1 [Ethoxazene]
IC50 [1]: 4.96 ± 3.42 µM
MMP assays efficacy (%) Rat Hepatocytes [1]: -106±32%
MMP assays efficacy (%) qHTS-HepG2 [2]: -91±7%
IC50 [2, 4]: 2.7 ± 1.13 µM
IC50 [3]: 2.82 µM
Emax [3]: 94%

O=C(O)c1ccccc1Nc1cccc(C(F)(F)F)c1 [Flufenamic acid]
IC50 [1]: 14.5 ± 4.99 µM
MMP assays efficacy (%) Rat Hepatocytes [1]: -111±31%
MMP assays efficacy (%) qHTS-HepG2 [2]: -129±20%
IC50 [2, 5]: 36.6 ± 1.87 µM
IC50 [3]: 17.3 µM
Emax [3]: 108%

Cc1c(Nc2ncccc2C(=O)O)cccc1C(F)(F)F [Flunixin meglumine]
IC50 [1]: 5.77 ± 4.59 µM
MMP assays efficacy (%) Rat Hepatocytes [1]: -107±11%
MMP assays efficacy (%) qHTS-HepG2 [2]: -123±14%
IC50 [2, 5]: 9.02 µM
IC50 [3]: 7.4 µM
Emax [3]: 83%

O=C1c2ccccc2C(=O)N1SC(Cl)(Cl)Cl [Folpet]
IC50 [1]: 33.7 ± 20.2 µM
MMP assays efficacy (%) qHTS-HepG2 [2]: -107±6%
IC50 [2, 5]: 8.25 ± 0.54 µM
IC50 [3]: 14.1 µM
Emax [3]: 100%

COc1ccc(-c2coc3cc(O)ccc3c2=O)cc1 [Formononetin]
IC50 [1]: 13.2 ± 16.2 µM
MMP assays efficacy (%) Rat Hepatocytes [1]: -74±27%
MMP assays efficacy (%) qHTS-HepG2 [2]: -85±16%
IC50 [2, 5]: 13.2 ± 4.88 µM
IC50 [3]: 17.8 µM
Emax [3]: 80%

CCC(=O)O[C@]1(C(=O)CCl)[C@@H](C)C[C@H]2[C@@H]3C[C@H](F)C4=CC(=O)C=C[C@]4(C)[C@@]3(F)[C@@H](O)C[C@@]21C [Halobetasol propionate]
IC50 [1]: 25.2 ± 7.02 µM
MMP assays efficacy (%) Rat Hepatocytes [1]: -82±13%
MMP assays efficacy (%) qHTS-HepG2 [2]: -106±7%
IC50 [2, 5]: 15.2 ± 5.52 µM
IC50 [3]: 13.8 µM
Emax [3]: 127%

Cc1nnc2n1-c1sc(CCc3ccc(CC(C)C)cc3)cc1C(c1ccccc1Cl)=NC2C (stereo not drawn) [Israpafant]
IC50 [1]: 23.5 ± 5.67 µM
MMP assays efficacy (%) Rat Hepatocytes [1]: -55±10%
IC50 [2, 5]: 22 ± 1.49 µM
IC50 [3]: 27.5 µM
Emax [3]: 108%

COC(=O)C1=C(C)NC(C)=C(C(=O)OC(C)(C)CN(C)CCC(c2ccccc2)c2ccccc2)C1c1cccc([N+](=O)[O-])c1 (stereo not drawn) [Lercanidipine hydrochloride]
IC50 [1]: 27.5 µM
MMP assays efficacy (%) Rat Hepatocytes [1]: -77±16%
MMP assays efficacy (%) qHTS-HepG2 [2]: -83±7%
IC50 [2, 5]: 6.53 ± 0.53 µM
Emax [3]: 117%

CN1C(C(=O)Nc2ccccn2)=C(O)c2sc(Cl)cc2S1(=O)=O [Lornoxicam]
IC50 [1]: 3.3 ± 2.52 µM
MMP assays efficacy (%) Rat Hepatocytes [1]: -57±10%
MMP assays efficacy (%) qHTS-HepG2 [2]: -92±10%
IC50 [2, 5]: 9.44 ± 1.09 µM
IC50 [3]: 6.15 µM
Emax [3]: 73%

C#C[C@]1(O)CC[C@H]2[C@@H]3CCC4=CCCC[C@@H]4[C@H]3CC[C@@]21C [Lynestrenol]
MMP assays IC50 (µM) Rat Hepatocytes [1]: inactive
MMP assays efficacy (%) Rat Hepatocytes [1]: inactive
MMP assays efficacy (%) qHTS-HepG2 [2]: -104±10%
IC50 [2, 5]: 16.6 ± 2.15 µM
IC50 [3]: 7.4 µM
Emax [3]: 55%

CCCCC(CC)CN1C(=O)C2C3C=CC(C3)C2C1=O (stereo not drawn) [MGK-264]
IC50 [1]: 17.8 ± 25.1 µM
MMP assays efficacy (%) Rat Hepatocytes [1]: -55±25%
MMP assays efficacy (%) qHTS-HepG2 [2]: -65±7%
IC50 [2, 5]: 15.4 ± 10.5 µM
IC50 [3]: 28.2 µM
Emax [3]: 84%

CC(C)OC(=O)C(C(=O)OC(C)C)=C1SC=CS1 [Malotilate]
IC50 [1]: 23.9 ± 29.3 µM
MMP assays efficacy (%) Rat Hepatocytes [1]: -106±108%
MMP assays efficacy (%) qHTS-HepG2 [2]: -82±14%
IC50 [2, 5]: 15 ± 1.99 µM
IC50 [3]: 39.8 µM
Emax [3]: 79%

COC(=O)C1=C(C)NC(C)=C(C(=O)OCCN2CCN(C(c3ccccc3)c3ccccc3)CC2)C1c1cccc([N+](=O)[O-])c1 (stereo not drawn) [Manidipine]
IC50 [1]: 20.9 ± 5.06 µM
MMP assays efficacy (%) Rat Hepatocytes [1]: -40±8%
MMP assays efficacy (%) qHTS-HepG2 [2]: -95±13%
IC50 [2, 5]: 12.2 ± 6.82 µM
IC50 [3]: 27.5 µM
Emax [3]: 98%

CN1C(=O)/C(=N\NC(N)=S)c2ccccc21 [Methisazone]
IC50 [1]: 21.5 ± 9.04 µM
MMP assays efficacy (%) Rat Hepatocytes [1]: -94±16%
MMP assays efficacy (%) qHTS-HepG2 [2]: -96±7%
IC50 [2, 5]: 5.82 ± 1.38 µM
IC50 [3]: 12.6 µM
Emax [3]: 90%
